According to article PMC12494099, “Discovery and Characterization of Novel IKZF1/3 Glue Degraders against Multiple Hematological Cancer Cell Lines” (Oncology Research, 2025):

What was measured:
Assay type in all cases: cell-based
[1] = test system: MUTZ-1; assay: Cell viability (CCK-8) assay; details: AML, 96 h; read-out: IC50 (μM) MUTZ-1
Experimental: (§1) The plated at a density of 15,000 cells per well, and each well contained 100 µL of medium. Subsequently, different compounds (MGD-AX, MGD-BX, MGD-CX) were added to each well. […] To evaluate the antiproliferative effects of these compounds, the Cell Counting Kit-8 (CCK-8, #CX007, Epizyme, Shanghai, China) was used. All procedures were carried out in strict accordance with the manufacturer’s instructions (Dojindo Laboratories, Mamoto Ken, Japan).

[2] = test system: NCI-H929; assay: Cell viability (CCK-8) assay; details: Homo sapiens, NCI-H929, 96 h
Experimental: as §1

[3] = test system: RPMI-8226; assay: Cell viability (CCK-8) assay; details: Homo sapiens, RPMI-8226; MM, 96 h; read-out: IC50 (μM) RPMI-8226
Experimental: as §1

[4] = test system: U2932; assay: Cell viability (CCK-8) assay; details: Homo sapiens, U2932; DLBCL, 96 h; read-out: IC50 (μM) U2932
Experimental: as §1

[5] = test system: U937; assay: Cell viability (CCK-8) assay; details: Homo sapiens, U-937; AML, 96 h; read-out: IC50 (μM) U937
Experimental: as §1

[6] = test system: OPM-2; assay: Cell viability (CCK-8) assay; details: Homo sapiens, OPM-2; MM, 96 h; read-out: IC50 (μM) OPM-2
Experimental: as §1

[7] = test system: Skm-1; assay: Cell viability (CCK-8) assay; details: Homo sapiens, SKM-1; AML, 96 h; read-out: IC50 (μM) Skm-1
Experimental: as §1

[8] = test system: MOLM-13; assay: Cell viability (CCK-8) assay; details: Homo sapiens, MOLM-13; AML, 96 h; read-out: IC50 (μM) MOLM-13
Experimental: as §1

[9] = test system: Ocl-Ly3; assay: Cell viability (CCK-8) assay; details: for IC50: 96 h, CCK-8
Experimental: as §1

[10] = test system: TMD8; assay: Cell viability (CCK-8) assay; details: Homo sapiens, TMD8; DLBCL, 96 h; read-out: IC50 (μM) TMD8
Experimental: as §1

[11] = test system: SU-DHL-4; assay: Cell viability (CCK-8) assay; details: Homo sapiens, SU-DHL-4; DLBCL, 96 h; read-out: IC50 (μM) SU-DHL-4
Experimental: as §1

[12] = test system: KG-1; assay: Cell viability (CCK-8) assay; details: Homo sapiens, KG-1; AML, 96 h; read-out: IC50 (μM) KG-1
Experimental: as §1

[13] = test system: MV-4-11; assay: Cell viability (CCK-8) assay; details: for IC50: Homo sapiens, MV4-11, 96 h, 96 h, CCK-8
Experimental: as §1

[14] = biological target: T1, endogenous CK1α (Homo sapiens, UniProt P48729); assay: Immunoblot analysis of endogenous protein; details: both NCI-H929 and MV-4-11 cells, up to 10 μM, 24 h
T1 construct: endogenous in cells; host or cells: NCI-H929 and MV-4-11
T1 sequence (Q96SW2 whole entry partner): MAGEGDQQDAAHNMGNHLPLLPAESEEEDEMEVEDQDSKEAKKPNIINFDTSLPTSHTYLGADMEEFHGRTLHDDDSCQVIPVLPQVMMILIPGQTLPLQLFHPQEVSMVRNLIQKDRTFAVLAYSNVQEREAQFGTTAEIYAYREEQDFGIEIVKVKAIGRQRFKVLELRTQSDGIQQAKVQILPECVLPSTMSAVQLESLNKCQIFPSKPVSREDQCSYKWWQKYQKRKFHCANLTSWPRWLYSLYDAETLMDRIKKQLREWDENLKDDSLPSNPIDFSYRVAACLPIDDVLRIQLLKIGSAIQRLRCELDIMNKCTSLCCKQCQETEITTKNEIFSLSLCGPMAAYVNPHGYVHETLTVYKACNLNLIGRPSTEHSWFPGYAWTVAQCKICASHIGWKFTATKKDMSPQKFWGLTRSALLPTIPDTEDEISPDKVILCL
T1 sequence (Q16531 whole entry partner): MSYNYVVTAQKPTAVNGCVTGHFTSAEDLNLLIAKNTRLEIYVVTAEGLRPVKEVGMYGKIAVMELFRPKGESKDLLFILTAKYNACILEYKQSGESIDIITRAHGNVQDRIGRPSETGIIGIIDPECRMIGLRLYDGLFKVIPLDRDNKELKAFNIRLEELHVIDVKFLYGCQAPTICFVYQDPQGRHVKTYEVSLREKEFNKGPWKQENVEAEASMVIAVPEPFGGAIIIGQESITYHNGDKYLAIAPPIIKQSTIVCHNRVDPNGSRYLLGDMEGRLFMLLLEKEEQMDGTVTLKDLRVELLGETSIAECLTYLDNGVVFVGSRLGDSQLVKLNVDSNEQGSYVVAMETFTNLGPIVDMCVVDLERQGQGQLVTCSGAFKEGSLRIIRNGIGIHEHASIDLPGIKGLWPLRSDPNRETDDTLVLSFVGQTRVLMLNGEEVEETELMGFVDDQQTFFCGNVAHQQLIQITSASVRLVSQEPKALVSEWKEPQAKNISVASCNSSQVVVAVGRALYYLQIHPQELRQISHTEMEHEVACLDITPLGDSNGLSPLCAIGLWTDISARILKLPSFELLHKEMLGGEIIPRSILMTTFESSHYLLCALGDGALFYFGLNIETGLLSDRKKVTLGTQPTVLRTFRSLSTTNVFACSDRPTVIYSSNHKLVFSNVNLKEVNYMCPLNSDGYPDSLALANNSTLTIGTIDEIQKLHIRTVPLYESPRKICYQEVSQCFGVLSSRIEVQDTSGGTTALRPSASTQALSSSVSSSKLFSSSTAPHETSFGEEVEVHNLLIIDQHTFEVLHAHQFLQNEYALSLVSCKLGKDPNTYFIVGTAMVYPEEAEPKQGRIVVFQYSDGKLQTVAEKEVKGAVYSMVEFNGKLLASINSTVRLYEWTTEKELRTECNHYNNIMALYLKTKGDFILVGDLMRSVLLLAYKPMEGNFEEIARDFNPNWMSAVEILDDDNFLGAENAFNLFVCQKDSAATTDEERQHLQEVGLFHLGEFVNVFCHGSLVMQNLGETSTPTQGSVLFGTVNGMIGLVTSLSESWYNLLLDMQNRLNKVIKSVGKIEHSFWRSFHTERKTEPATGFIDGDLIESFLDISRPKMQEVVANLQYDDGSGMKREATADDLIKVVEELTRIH
T1 sequence (P48729 whole entry): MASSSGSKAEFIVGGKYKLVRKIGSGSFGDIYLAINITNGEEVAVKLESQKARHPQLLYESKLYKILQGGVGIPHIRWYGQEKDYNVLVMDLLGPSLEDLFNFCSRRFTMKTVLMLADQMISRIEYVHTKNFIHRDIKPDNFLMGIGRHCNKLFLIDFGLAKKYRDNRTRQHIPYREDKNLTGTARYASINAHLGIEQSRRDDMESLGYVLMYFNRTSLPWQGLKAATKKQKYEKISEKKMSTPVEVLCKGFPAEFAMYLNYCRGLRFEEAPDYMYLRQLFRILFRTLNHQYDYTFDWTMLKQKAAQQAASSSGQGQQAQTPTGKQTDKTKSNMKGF
Experimental: (§2) Cells (NCI-H929 and MV-4-11) were plated into 6-well plates. They were then treated with different concentrations (0, 0.01, 0.1, 1, 10 μM) of the compounds (MGD-A7, MGD-C9) or the designated time periods. Afterward, the cells were washed with phosphate-buffered saline (PBS, pH = 7.2–7.4, 1×). Next, they were lysed using RIPA buffer (#R0278-500ML, Sigma-Aldrich, MO, USA), and the cell lysates were precisely measured. Following this, the total protein lysates underwent 10% sodium dodecyl sulfate-polyacrylamide gel electrophoresis (SDS-PAGE). This method efficiently separated the proteins based on their molecular weights. Subsequently, the separated proteins were transferred onto a nitrocellulose membrane (#HATF00010, […], Madison, WI, USA). The membranes were then successively incubated with the indicated primary antibodies. These antibodies were diluted in 5% bovine serum albumin (BSA) in Tris-buffered saline with Tween 20 (TBST, #TF103; Epizyme, Shanghai, China). The incubation was conducted overnight at 4°C with gentle agitation. The secondary antibodies were also diluted in 5% BSA in TBST (#TF103; Epizyme, Shanghai, China). […] Finally, after thorough washing with TBST, the membranes were developed using an enhanced chemiluminescence (ECL) substrate (#WBULS0100, Sigma-Aldrich). The chemiluminescent signal was detected, and membrane images were captured with an Imaging system (Bio-Rad, Hercules, CA, USA). ImageJ analysis software (V1.8.0.112, National Institutes of Health, NIH, Bethesda, MD, USA) was employed to analyze the intensity of protein bands, aiming to quantify the relative expression levels of the target proteins. The half-maximal degradation concentration (DC50) value, which indicates the concentrations of test compounds showing 50% protein degradation efficacy, was calculated using GraphPad Prism 8.0.

[15] = biological target: T2, endogenous IKZF1 (Homo sapiens, UniProt Q13422+Q96SW2); assay: Immunoblot analysis of endogenous protein; details: both NCI-H929 and MV-4-11 cells, 24 h, greater than pomalidomide
T2 construct: endogenous in cells; host or cells: NCI-H929 and MV-4-11
T2 sequence (Q13422 whole entry): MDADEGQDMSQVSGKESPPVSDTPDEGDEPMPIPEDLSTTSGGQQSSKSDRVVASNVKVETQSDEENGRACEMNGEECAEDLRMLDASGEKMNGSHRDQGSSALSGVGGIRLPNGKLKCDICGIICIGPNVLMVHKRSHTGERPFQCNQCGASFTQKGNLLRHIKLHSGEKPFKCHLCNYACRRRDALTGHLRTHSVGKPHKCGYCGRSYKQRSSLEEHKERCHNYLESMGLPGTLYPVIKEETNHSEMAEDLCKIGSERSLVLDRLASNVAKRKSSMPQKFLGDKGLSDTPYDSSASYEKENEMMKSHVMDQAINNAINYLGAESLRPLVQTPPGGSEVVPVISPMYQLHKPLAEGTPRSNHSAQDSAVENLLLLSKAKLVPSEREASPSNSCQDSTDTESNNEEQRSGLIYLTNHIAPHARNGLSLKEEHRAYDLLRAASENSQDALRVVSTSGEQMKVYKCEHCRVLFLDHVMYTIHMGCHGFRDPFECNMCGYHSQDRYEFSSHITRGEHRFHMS
T2 sequence (Q96SW2 whole entry): as the sequence (Q96SW2 whole entry partner) above
T2 sequence (Q16531 whole entry partner): as the sequence (Q16531 whole entry partner) above
Experimental: as §2

[16] = biological target: T3, endogenous IKZF3 (Homo sapiens, UniProt Q96SW2+Q9UKT9); assay: Immunoblot analysis of endogenous protein; details: both NCI-H929 and MV-4-11 cells, 24 h, greater than pomalidomide
T3 construct: endogenous in cells; host or cells: NCI-H929 and MV-4-11
T3 sequence (Q9UKT9 whole entry): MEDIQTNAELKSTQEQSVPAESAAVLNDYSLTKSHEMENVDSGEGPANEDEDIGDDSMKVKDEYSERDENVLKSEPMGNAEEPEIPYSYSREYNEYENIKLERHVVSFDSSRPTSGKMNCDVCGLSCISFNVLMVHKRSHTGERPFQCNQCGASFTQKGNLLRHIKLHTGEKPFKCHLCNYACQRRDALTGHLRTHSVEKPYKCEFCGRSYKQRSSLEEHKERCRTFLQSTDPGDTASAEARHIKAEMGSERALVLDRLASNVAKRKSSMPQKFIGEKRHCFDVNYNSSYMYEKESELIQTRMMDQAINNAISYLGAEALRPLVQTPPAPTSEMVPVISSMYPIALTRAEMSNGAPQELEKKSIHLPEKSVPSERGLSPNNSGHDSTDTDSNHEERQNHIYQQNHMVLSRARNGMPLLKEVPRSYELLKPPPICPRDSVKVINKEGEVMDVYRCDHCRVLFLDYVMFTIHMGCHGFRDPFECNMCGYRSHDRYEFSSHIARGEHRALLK
T3 sequence (Q96SW2 whole entry): as the sequence (Q96SW2 whole entry partner) above
T3 sequence (Q16531 whole entry partner): as the sequence (Q16531 whole entry partner) above
Experimental: as §2

[17] = biological target: T4, endogenous GSPT1 (Homo sapiens, UniProt P15170); assay: Immunoblot analysis of endogenous protein; details: both NCI-H929 and MV-4-11 cells, up to 10 μM, 24 h
T4 construct: endogenous in cells; host or cells: NCI-H929 and MV-4-11
T4 sequence (Q96SW2 whole entry partner): as the sequence (Q96SW2 whole entry partner) above
T4 sequence (Q16531 whole entry partner): as the sequence (Q16531 whole entry partner) above
T4 sequence (P15170 whole entry): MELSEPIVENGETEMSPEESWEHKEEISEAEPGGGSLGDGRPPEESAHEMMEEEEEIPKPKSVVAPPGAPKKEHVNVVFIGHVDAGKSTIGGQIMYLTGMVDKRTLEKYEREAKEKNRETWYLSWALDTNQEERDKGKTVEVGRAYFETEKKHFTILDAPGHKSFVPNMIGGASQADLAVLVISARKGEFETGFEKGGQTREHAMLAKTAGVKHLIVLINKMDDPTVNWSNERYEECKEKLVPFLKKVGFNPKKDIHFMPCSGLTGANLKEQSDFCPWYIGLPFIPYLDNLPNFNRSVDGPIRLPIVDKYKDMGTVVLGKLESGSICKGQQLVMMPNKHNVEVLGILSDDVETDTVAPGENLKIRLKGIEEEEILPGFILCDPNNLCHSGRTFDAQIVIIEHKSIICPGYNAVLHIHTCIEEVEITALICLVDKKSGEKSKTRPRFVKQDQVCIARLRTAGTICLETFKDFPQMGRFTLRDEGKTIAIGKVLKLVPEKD
Experimental: as §2

[18] = biological target: T5, IKZF1-HiBiT (Homo sapiens, UniProt Q13422+Q96SW2); assay: Quantitative degradation assay using the HiBiT system (HEK293T); details: for reduction in IKZF1: 1 μM, time course; for DC50 / Dmax: HEK293T IKZF1-HiBiT, 24 h; for Dmax: HEK-293T, read-out: maximal degradation (Dmax) on IKZF1
T5 construct: expressed in transfected cells; host or cells: HEK293T
T5 sequence (Q13422 whole entry): as the sequence (Q13422 whole entry) above
T5 sequence (Q96SW2 whole entry): as the sequence (Q96SW2 whole entry partner) above
T5 sequence (Q16531 whole entry partner): as the sequence (Q16531 whole entry partner) above
Experimental: (§3) An in vitro quantitative degradation assay utilizing the HiBiT system was carried out as previously described. To evaluate the degradation of IKZF1, IKZF2, and IKZF3 proteins, HEK293T cell lines stably expressing IKZF1-, IKZF2-, IKZF3-, GSPT1- or CK1α-HiBiT were cultured in 96-well plates at 12,000 cells per well. […] After the treatment, cell lysis was carried out using the Nano-Glo HiBiT Lytic Detection System (#N3040, Promega). All lysis operations were strictly carried out according to the manufacturer’s specific protocol. Then, the SpectraMax iD3 instrument (Molecular Devices, San Jose, CA, USA) was used to detect the luminescent signals released by the HiBiT-tagged neosubstrates.

[19] = biological target: T6, IKZF3-HiBiT (Homo sapiens, UniProt Q96SW2+Q9UKT9); assay: as above; details: for reduction in IKZF3: 1 μM, time course; for DC50 / Dmax: HEK293T IKZF3-HiBiT, 24 h; for Dmax: HEK-293T, read-out: maximal degradation (Dmax) on IKZF3
T6 construct: expressed in transfected cells; host or cells: HEK293T
T6 sequence (Q9UKT9 whole entry): as the sequence (Q9UKT9 whole entry) above
T6 sequence (Q96SW2 whole entry): as the sequence (Q96SW2 whole entry partner) above
T6 sequence (Q16531 whole entry partner): as the sequence (Q16531 whole entry partner) above
Experimental: as §3

## CN1CCN(Cc2cccc(C(=O)NC3CCC(=O)NC3=O)c2F)C(=O)C1 (stereo not drawn) [MGD-C9, N-(2,6-dioxopiperidin-3-yl)-2-fluoro-3-((4-methyl-2-oxopiperazin-1-yl)methyl)benzamide]
[1]
  IC50: 10.5 µM
[2]
  IC50: 0.26 ± 0.03 µM
[3]
  IC50: 1.23 µM
[4]
  IC50: 1.25 µM
[5]
  IC50: 1.24 µM
[6]
  IC50: 0.0845 µM
[7]
  IC50: 2.03 µM
[8]
  IC50: 9.11 µM
[9]
  IC50: 0.81 ± 0.09 µM
[9]; Ocl-Ly3 cells
  times stronger antiproliferative activity than avadomide: approximately 20 times
[10]
  IC50: 5.03 µM
[11]
  IC50: 7.37 µM
[12]
  IC50: 0.33 µM
[13]
  IC50: 0.21 ± 0.02 µM
[13]; MV-4-11 cells
  fold higher antiproliferative activity than avadomide: approximately 4 fold
[14]
  degradation of endogenous CK1α: minimal degradation effects
[15]
  degradation of endogenous IKZF1: effectively induced the degradation
[16]
  degradation of endogenous IKZF3: effectively induced the degradation
[17]
  degradation of endogenous GSPT1: minimal degradation effects
[18]; 8 h
  reduction in IKZF1: > 60%
[18]
  DC50: 0.096 µM
  Dmax: 90.3%
[19]; 8 h
  reduction in IKZF3: > 70%
[19]
  DC50: 0.057 µM
  Dmax: 92.1%

## CN1CCN(Cc2cccc(C(=O)NC3CCC(=O)NC3=O)c2)CC1 (stereo not drawn) [MGD-A7, N-(2,6-dioxopiperidin-3-yl)-3-((4-methylpiperazin-1-yl)methyl)benzamide]
[1]
  IC50: 13.2 µM
[2]
  IC50: 0.67 ± 0.1 µM
[3]
  IC50: 2.11 µM
[4]
  IC50: 3.34 µM
[5]
  IC50: 3.83 µM
[6]
  IC50: 0.153 µM
[7]
  IC50: 4.03 µM
[8]
  IC50: 19.3 µM
[9]
  IC50: 2.32 ± 0.22 µM
[10]
  IC50: 6.77 µM
[11]
  IC50: 10.3 µM
[12]
  IC50: 1.24 µM
[13]
  IC50: 0.59 ± 0.07 µM
[14]
  degradation of endogenous CK1α: minimal degradation effects
[15]
  degradation of endogenous IKZF1: effectively induced the degradation
[16]
  degradation of endogenous IKZF3: effectively induced the degradation
[17]
  degradation of endogenous GSPT1: minimal degradation effects
[18]; 12 h
  reduction in IKZF1: > 60%
[18]
  DC50: 0.249 µM
  Dmax: 89.4%
[19]; 12 h
  reduction in IKZF3: > 80%
[19]
  DC50: 0.11 µM
  Dmax: 86.4%
